Data as given in patent publication US11332485B2, “Penicillin-binding protein inhibitors” (priority 2017, dated 2022).
pEC50: −log10 of the molar value.

How the values were obtained:
[1] = target: T1, PBP1b from Escherichia coli (Escherichia coli, UniProt P02919); experiment: Radioligand competition binding assay with 14C-labeled boronic acid probe (Example 96); conditions: 14C-labeled probe 96 at 20 μM, PBP 0.1 μM; read-out: E. coli K12 PBP1b EC50
T1 construct: made in house
Source text: (§1) To determine the ability of boronic acid-based test PBP inhibitors to bind Penicillin Binding Proteins (PBPs), a radio-labelled boronic acid PBP inhibitor (Example 96) was used in competition binding assays to determine boronic acid PBP inhibitor binding to PBP1a or PBP1b from Escherichia coli. PBP1a and PBP1b were purified as described previously (Bertsche, U.; et al., J. Biol. Chem. 2005, 280 (45), 38096-38101; Born, P.; et al., J Biol. Chem. 2006. 281 (37), 26985-26993). To establish assay conditions for competition binding, an enzyme titration/saturation binding experiment was performed. Saturation binding was performed in a buffer comprised of 20 mM Tris (pH 7.5), 500 mM NaCl and 0.1% (v/v) TritonX-100, with PBP1a/PBP1b at a final concentration of 0.1 μM and 96 at final concentrations ranging from 0-100 μM. Mixtures were incubated for 60 minutes, then applied to Zeba Spin Desalting columns or plates (ThermoFisher Scientific) and centrifuged at 1000-1500×g for 2 minutes. The flow through, containing PBP bound with 96, was recovered and 100 μL mixed with 5 mL of UltimaGold liquid scintillation cocktail (Perkin Elmer), and the radioactivity counted using a Beckman Coulter LS 6500 Multipurpose scintillation counter. PBP binding of 96 approached saturation at 20 μM of ^14C-labeled probe. The competition binding assay was validated using the beta-lactam ampicillin, with 96 at a final concentration of 20 μM, PBP1a/PBP1b at a final concentration of 0.1 μM. PBP1a/PBP1b was incubated with ampicillin in a 96-well microplate for 60 minutes, then 96 was added and the mixtures incubated for an additional 60 minutes. The mixtures were then applied to Zeba Spin desalting plates and centrifuged at 1000×g for 2 minutes. The flow through was recovered and 100 μl mixed with 5 ml of UltimaGold liquid scintillation cocktail and the radioactivity counted. Ampicillin inhibited binding of 96 with an EC50 (the concentration of inhibitor required to reduce binding of 96 by 50%) of less than 0.5 μM. Binding assays with boronic acid PBP inhibitors were performed in an identical fashion. The potency of boronic acid PBP inhibitors was reported as the EC50 value.
(§2) Representative results are shown in Table 5, where A represents a potency of >100 μM, B represents a potency between 10 μM and 100 μM inclusive, and C represents a potency of <10 μM. NT=Not Tested.

[2] = system: E. coli DH5α/pLBII; experiment: Broth microdilution MIC assay, empty vector control strain; assay type: cell-based; conditions: Escherichia coli, read-out: E. coli DH5α/pLBII Microbiological Activity (MIC)
Method in brief: (§3)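 CLSI broth microdilution in cation-supplemented Mueller-Hinton broth, 2-fold compound dilutions, 5×10^5 CFU/mL inoculum, 16-20 h at 37° C, MIC read visually as lowest concentration without growth. E. coli DH5α carries CTX-M15 on pLBII under Lac promoter, or empty pLBII as control.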

[3] = system: S. aureus ATCC 29213; experiment: Broth microdilution MIC assay; assay type: cell-based; conditions: Staphylococcus aureus, ATCC29213; broth microdilution, 16-20 hours at 37° C.; read-out: S. aureus 29213 MIC
Method in brief: (§4)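 Following CLSI procedures, compounds were serially diluted 2-fold and challenged with bacteria at 5×10^5 CFU/mL in Mueller-Hinton broth supplemented with divalent cations. After 16-20 hours at 37° C, the lowest concentration without visible growth was recorded as the MIC.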

[4] = system: hyper-permeable E. coli 901C; experiment: Broth microdilution MIC assay; assay type: cell-based; conditions: Escherichia coli, read-out: E. coli 901C MIC
Method in brief: as §4

[5] = system: E. coli DH5α/pLBII-CTX-M15; experiment: Broth microdilution MIC assay, engineered strain producing CTX-M15; assay type: cell-based, Escherichia coli; conditions: Escherichia coli, read-out: E. coli DH5α/pLBII-CTX-M15 Microbiological Activity (MIC)
Method in brief: as §3

[6] = target: T2, PBP3 from Escherichia coli (Escherichia coli, UniProt P0AD68); experiment: Fluorescence polarization competition binding assay with Bocillin-FL
T2 construct: made in house
Method in brief: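 Fluorescence polarization competition assay with Bocillin-FL at 0.1 μM final and purified E. coli PBP3 at 1.5 μM final in 50 mM Hepes pH 8.0, 300 mM NaCl, 5% glycerol. Inhibitor preincubated with PBP3 for 30 min before probe addition; FP then read continuously for 60 min. Potency reported in binned categories.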

[7] = target: T3, PBP1a from Escherichia coli (Escherichia coli, UniProt P02918); experiment: Radioligand competition binding assay with 14C-labeled boronic acid probe (Example 96); conditions: 14C-labeled probe 96 at 20 μM, PBP 0.1 μM; read-out: E. coli K12 PBP1a EC50
T3 construct: made in house
Source text: as §1, §2

T2 sequence (P0AD68 1-577): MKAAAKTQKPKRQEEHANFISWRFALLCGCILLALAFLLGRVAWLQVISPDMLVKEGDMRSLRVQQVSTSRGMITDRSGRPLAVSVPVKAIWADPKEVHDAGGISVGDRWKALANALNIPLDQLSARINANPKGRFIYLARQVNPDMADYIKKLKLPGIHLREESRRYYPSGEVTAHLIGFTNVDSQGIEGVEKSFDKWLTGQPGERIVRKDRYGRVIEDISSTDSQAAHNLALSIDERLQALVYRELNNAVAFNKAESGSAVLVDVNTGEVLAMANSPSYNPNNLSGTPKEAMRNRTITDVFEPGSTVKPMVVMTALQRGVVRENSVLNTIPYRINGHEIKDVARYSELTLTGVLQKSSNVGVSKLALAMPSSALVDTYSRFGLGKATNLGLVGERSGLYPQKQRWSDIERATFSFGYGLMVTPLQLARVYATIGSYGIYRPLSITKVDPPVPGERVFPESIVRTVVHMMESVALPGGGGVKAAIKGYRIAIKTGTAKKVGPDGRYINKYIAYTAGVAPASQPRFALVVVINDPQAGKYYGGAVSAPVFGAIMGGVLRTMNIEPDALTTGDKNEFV
T3 sequence (P02918 whole entry): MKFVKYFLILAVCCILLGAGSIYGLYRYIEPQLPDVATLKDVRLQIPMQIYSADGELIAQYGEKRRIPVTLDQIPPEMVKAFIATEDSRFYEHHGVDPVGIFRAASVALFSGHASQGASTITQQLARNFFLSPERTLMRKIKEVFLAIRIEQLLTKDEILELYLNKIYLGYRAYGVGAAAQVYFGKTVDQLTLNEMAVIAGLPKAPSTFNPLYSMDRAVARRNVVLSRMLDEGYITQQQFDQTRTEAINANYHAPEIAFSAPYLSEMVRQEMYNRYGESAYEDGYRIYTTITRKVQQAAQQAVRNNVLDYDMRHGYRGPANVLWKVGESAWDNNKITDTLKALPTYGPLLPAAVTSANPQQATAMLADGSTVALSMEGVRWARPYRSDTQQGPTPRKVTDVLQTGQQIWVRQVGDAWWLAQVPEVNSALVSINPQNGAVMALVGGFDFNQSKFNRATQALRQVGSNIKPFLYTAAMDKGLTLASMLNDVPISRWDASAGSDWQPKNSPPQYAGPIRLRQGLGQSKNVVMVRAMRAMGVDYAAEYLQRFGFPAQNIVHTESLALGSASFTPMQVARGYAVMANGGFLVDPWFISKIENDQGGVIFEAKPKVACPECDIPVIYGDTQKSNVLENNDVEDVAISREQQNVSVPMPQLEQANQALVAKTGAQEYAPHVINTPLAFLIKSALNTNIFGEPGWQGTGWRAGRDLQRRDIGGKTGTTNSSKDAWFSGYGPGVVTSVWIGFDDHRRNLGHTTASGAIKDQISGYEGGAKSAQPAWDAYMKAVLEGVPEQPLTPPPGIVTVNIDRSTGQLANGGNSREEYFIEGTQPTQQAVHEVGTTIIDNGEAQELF
T1 sequence (P02919 whole entry): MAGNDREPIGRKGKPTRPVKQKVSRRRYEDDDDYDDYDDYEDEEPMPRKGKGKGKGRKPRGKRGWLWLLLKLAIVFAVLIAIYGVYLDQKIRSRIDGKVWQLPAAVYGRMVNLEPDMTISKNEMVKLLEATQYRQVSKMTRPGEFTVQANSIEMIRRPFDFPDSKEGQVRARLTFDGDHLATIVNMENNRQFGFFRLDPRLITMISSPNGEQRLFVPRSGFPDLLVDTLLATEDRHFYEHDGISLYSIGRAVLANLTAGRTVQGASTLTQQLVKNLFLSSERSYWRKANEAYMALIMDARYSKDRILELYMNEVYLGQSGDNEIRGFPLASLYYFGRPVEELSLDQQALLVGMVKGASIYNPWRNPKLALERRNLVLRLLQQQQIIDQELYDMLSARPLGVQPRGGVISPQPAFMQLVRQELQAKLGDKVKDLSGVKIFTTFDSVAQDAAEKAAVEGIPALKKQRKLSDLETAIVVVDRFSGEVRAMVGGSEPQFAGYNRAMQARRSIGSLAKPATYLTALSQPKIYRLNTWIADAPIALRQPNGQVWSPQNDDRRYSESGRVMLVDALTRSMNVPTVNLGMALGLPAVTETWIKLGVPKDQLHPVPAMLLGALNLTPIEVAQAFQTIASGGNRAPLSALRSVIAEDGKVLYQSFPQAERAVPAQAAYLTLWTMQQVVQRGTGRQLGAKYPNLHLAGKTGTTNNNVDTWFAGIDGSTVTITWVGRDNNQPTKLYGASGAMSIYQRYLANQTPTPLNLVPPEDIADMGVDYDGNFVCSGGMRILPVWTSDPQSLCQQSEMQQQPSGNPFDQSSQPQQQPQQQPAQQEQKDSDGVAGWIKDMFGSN

Row | SMILES | pEC50 [1] | MIC [2] [µg/mL] | MIC [3] [µg/mL] | MIC [4] [µg/mL] | MIC [5] [µg/mL] | pEC50 [6] | pEC50 [7]
1 | Nc1nc(C(NC(=O)N2CCN(CC3CC3)C(=O)C2=O)C(=O)N[C@H]2Cc3cccc(C(=O)O)c3OB2O)cs1 (stereo partly drawn) [Example 67, (3R)-3-(2-(2-aminothiazol-4-yl)-2-(4-(cyclopropylmethyl)-2,3-dioxopiperazine-1-carboxamido)acetamido)-2-hydroxy-3,4-dihydro-2H-benzo[e][1,2]oxaborinine-8-carboxylic acid] | > 5.00 | 32 to 64 | 64 to 128 | < 64 | 32 to 64 | 3.30 to 4.52 | –
2 | Nc1nc(C(NS(N)(=O)=O)C(=O)N[C@H]2Cc3cccc(C(=O)O)c3OB2O)cs1 (stereo partly drawn) [Example 26, (3R)-3-(2-(2-aminothiazol-4-yl)-2-(sulfamoylamino)acetamido)-2-hydroxy-3,4-dihydro-2H-benzo[e][1,2]oxaborinine-8-carboxylic acid] | 4.00 to 5.00 | 32 to 64 | > 128 | < 64 | 32 to 64 | 3.30 to 4.52 | > 5.00
3 | CCN1CCN(C(=O)N[C@@H](C(=O)N[C@H]2Cc3cccc(C(=O)O)c3OB2O)C(C)C)C(=O)C1=O [Example 78, (R)-3-((R)-2-(4-ethyl-2,3-dioxopiperazine-1-carboxamido)-3-methylbutanamido)-2-hydroxy-3,4-dihydro-2H-benzo[e][1,2]oxaborinine-8-carboxylic acid] | > 5.00 | 32 to 64 | 64 to 128 | < 64 | 32 to 64 | > 4.52 | –
4 | CCN1CCN(C(=O)N[C@H](C)C(=O)N[C@H]2Cc3cccc(C(=O)O)c3OB2O)C(=O)C1=O [Example 34, (R)-3-((R)-2-(4-Ethyl-2,3-dioxopiperazine-1-carboxamido)propanamido)-2-hydroxy-3,4-dihydro-2H-benzo[e][1,2]oxaborinine-8-carboxylic acid] | > 5.00 | 128 to 256 | > 128 | < 64 | 128 to 256 | 3.30 to 4.52 | 4.00 to 5.00
5 | C[C@@H](O)[C@@H](NC(=O)N1CCN(CCF)C(=O)C1=O)C(=O)N[C@H]1Cc2cccc(C(=O)O)c2OB1O [Example 91, (R)-3-((2R,3R)-2-(4-(2-fluoroethyl)-2,3-dioxopiperazine-1-carboxamido)-3-hydroxybutanamido)-2-hydroxy-3,4-dihydro-2H-benzo[e][1,2]oxaborinine-8-carboxylic acid] | > 5.00 | – | > 128 | < 64 | 8 to 16 | < 3.30 | –
6 | CCN1CCN(C(=O)NC(Cc2ccccc2)C(=O)N[C@H]2Cc3cccc(C(=O)O)c3OB2O)C(=O)C1=O (stereo partly drawn) [Example 79, (3R)-3-(2-(4-ethyl-2,3-dioxopiperazine-1-carboxamido)-3-phenylpropanamido)-2-hydroxy-3,4-dihydro-2H-benzo[e][1,2]oxaborinine-8-carboxylic acid] | > 5.00 | – | < 64 | < 64 | – | 3.30 to 4.52 | –
7 | CS(=O)(=O)N1CCN(C(=O)NC(C(=O)N[C@H]2Cc3cccc(C(=O)O)c3OB2O)c2csc(N)n2)C1=O (stereo partly drawn) [Example 20, (3R)-3-(2-(2-aminothiazol-4-yl)-2-(3-(methylsulfonyl)-2-oxoimidazolidine-1-carboxamido)acetamido)-2-hydroxy-3,4-dihydro-2H-benzo[e][1,2]oxaborinine-8-carboxylic acid] | – | 32 to 64 | 64 to 128 | < 64 | 32 to 64 | 3.30 to 4.52 | > 5.00
8 | CCN1CCN(C(=O)N[C@H](C(=O)N[C@H]2Cc3cccc(C(=O)O)c3OB2O)[C@H](O)CO)C(=O)C1=O [Example 73, (R)-3-((2S,3S)-2-(4-ethyl-2,3-dioxopiperazine-1-carboxamido)-3,4-dihydroxybutanamido)-2-hydroxy-3,4-dihydro-2H-benzo[e][1,2]oxaborinine-8-carboxylic acid] | < 4.00 | > 512 | > 128 | > 128 | > 512 | < 3.30 | –
